Test results published in PubChem BioAssay (NCI).
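Briefly, cells in 96-well plates were exposed to five compound concentrations for 48 h, and endpoints were estimated by linear interpolation. GI50 = concentration required for 50% inhibition of growth. TGI denotes the concentration required for complete inhibition of growth.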

How the values were obtained:
Experiment in all cases: inhibition of tumour cell growth, NCI panel, 48 h
[1] = system: SW-620 colon
[2] = system: NCI-H23 lung
[3] = system: RPMI-8226 leukemia
[4] = system: HL-60(TB) leukemia
[5] = system: IGROV1 ovarian
[6] = system: LOX IMVI melanoma
[7] = system: NCI-H460 lung
[8] = system: SK-MEL-5 melanoma
[9] = system: PC-3 prostate
[10] = system: MDA-MB-231 breast

Row | SMILES | TGI [1] | TGI [2] | TGI [3] | TGI [4] | TGI [5] | TGI [6] | TGI [7] | TGI [8] | GI50 [1] | GI50 [2] | GI50 [9] | TGI [9] | GI50 [10] | TGI [10] | GI50 [8] | GI50 [3] | GI50 [5] | GI50 [7] | GI50 [4] | GI50 [6]
1 | Cc1cc(C)c2c(c1)Nc1ccccc1P2c1ccccc1 (stereo unspecified) | > 100 µM | 83.8 µM | 26.7 µM | 59.6 µM | > 100 µM | > 100 µM | 50.8 µM |  |  |  |  |  |  |  |  |  |  |  |  | 
2 | O=c1c(Sc2c(O)c3ccccc3c3ccccc3c2=O)c(O)c2ccccc2c2ccccc12 | > 100 µM | 94.7 µM | > 100 µM | 41.8 µM | > 100 µM | 66.5 µM | > 100 µM | > 100 µM |  |  |  |  |  |  |  |  |  |  |  | 
3 | N#Cc1cccc(C(=O)Nc2cccc(NC(=O)c3cccc(C#N)c3)c2)c1 | > 100 µM | > 100 µM | > 100 µM |  | > 100 µM |  | > 100 µM | > 100 µM | > 100 µM | 89 µM | 77.6 µM | > 100 µM | 75.9 µM | > 100 µM | 29.2 µM | 52 µM | > 100 µM | 42.8 µM |  | 
4 | C=C1CC2(C[C@@H](c3ccccc3)O[C@@H](c3ccccc3)C2)OC1=O (stereo partly specified) | 3.95 µM | 7.72 µM | 2.57 µM | 2.84 µM | 8.26 µM | 2.84 µM | 23.3 µM | 8.83 µM |  |  |  | 14.5 µM |  | 4.58 µM |  |  |  |  |  | 
5 | Cc1nc2cnc3cc(F)c(-c4ccc(Oc5ncccn5)cc4Cl)cc3c2n1[C@H]1CCN(C(=O)CO)C[C@@H]1F | 54.6 µM | 13.7 µM | 13.9 µM | 1.69 µM | > 100 µM | 11.5 µM | > 100 µM | 14.7 µM | 0.422 µM | 0.32 µM | 28.9 µM | > 100 µM | 0.101 µM | 5.83 µM | 0.49 µM | 1.35 µM | 0.936 µM | 2.54 µM | 0.106 µM | 0.417 µM
6 | CS(=O)(=O)OCCn1cnc2nc(NC(=O)c3ccccc3)[nH]c(=O)c21 | > 100 µM |  | > 100 µM | > 100 µM | > 100 µM | > 100 µM | > 100 µM | > 100 µM |  |  |  |  |  |  |  |  |  |  |  | 
7 | O=C1OC(CC(=O)c2ccc(Cl)cc2Cl)C(Cl)=C1Cl (stereo unspecified) | 38.1 µM | > 65.7 µM | > 73 µM | > 75.6 µM | > 69.9 µM | 57.9 µM | > 100 µM | > 66.3 µM |  |  |  |  |  |  |  |  |  |  |  | 
8 | Cc1ccc(NC(=O)c2cc3ccccc3c(N=Nc3ccccc3O)c2O)c(C)c1 | 11.8 µM |  | 11.1 µM | 4.09 µM | 13.5 µM |  | 12.1 µM | 3.35 µM |  |  |  | 10 µM |  | 8.77 µM |  |  |  |  |  | 
9 | CCOC(=O)C1=C(NNC(=O)Cc2ccccc2)CSC1=Nc1ccccc1 | > 100 µM | > 100 µM |  | > 100 µM | > 100 µM | > 100 µM | > 100 µM | > 100 µM |  |  |  |  |  |  |  |  |  |  |  | 
10 | CCCCCCCCC(=O)N(C)C1C2CN3CCC(O2)C13 (stereo unspecified) | > 100 µM | > 100 µM | > 100 µM | > 100 µM | > 100 µM | > 100 µM | > 100 µM | > 100 µM |  |  |  |  |  |  |  |  |  |  |  | 
11 | COc1ccc(-c2cc(-c3ccccc3)nc(N3CCN(CCNc4ccnc5cc(Cl)ccc45)CC3)n2)cc1 | 3.47 µM | 5.23 µM | 4.57 µM |  | 3.19 µM | 3.24 µM | 3.78 µM | 3 µM | 1.73 µM | 1.9 µM |  |  | 1.81 µM | 3.43 µM | 1.62 µM | 1.65 µM | 1.48 µM | 1.92 µM |  | 1.76 µM
12 | COc1ccn2c(C(C)=O)cc(C(=O)c3ccc4c(c3)Sc3ccccc3N4)c2c1 | > 100 µM | > 100 µM | > 100 µM |  | > 100 µM | > 100 µM | > 38 µM | 0.449 µM | 0.148 µM | 0.136 µM | 0.129 µM | > 100 µM | 0.155 µM | 10.6 µM | 0.104 µM | 0.141 µM | 0.164 µM | 0.113 µM |  | 0.15 µM
13 | O=c1[nH]nc2ccccc2c1Cl | 34.2 µM | 35.9 µM | 8.87 µM |  | 28.5 µM | 37.5 µM | 46.2 µM |  |  |  |  |  |  |  |  |  |  |  |  | 
14 | C=C1C(=O)OC2C1CC[C@H](C)C13OC(=O)CC1[C@@]23C (stereo partly specified) | > 100 µM | > 100 µM | > 100 µM | > 100 µM | > 100 µM |  | > 100 µM | > 100 µM |  |  |  |  |  |  |  |  |  |  |  | 
15 | Nc1c(Br)c(=O)[nH]c(=O)n1COCCO | > 100 µM | > 100 µM |  | > 100 µM | > 100 µM | > 100 µM | > 100 µM | > 100 µM |  |  |  |  |  |  |  |  |  |  |  | 
16 | c1cc(CCN2CCCCC2)ccn1 | > 100 µM | > 100 µM | > 100 µM |  | > 100 µM | > 100 µM | > 100 µM | > 100 µM |  |  |  | > 100 µM |  | > 100 µM |  |  |  |  |  | 
17 | CC(C)(O)C1CCC(Nc2ccc3ncc(-c4cccc(C(F)(F)F)c4)n3n2)CC1 (stereo unspecified) | 15 µM | 30.2 µM | 0.79 µM |  | 11.6 µM | 4.23 µM | 12.1 µM |  | 2.91 µM | 3.16 µM | 0.815 µM | 12.7 µM | 1.96 µM | 14 µM |  | 0.266 µM | 2.48 µM | 2.7 µM |  | 1.56 µM
18 | N#Cc1c(N)nc(N2CCOCC2)c(C#N)c1-c1ccc(Cl)cc1 | > 100 µM | > 100 µM | > 100 µM |  | 46.4 µM | > 100 µM | > 100 µM | > 100 µM | > 100 µM | 73.5 µM | 16.6 µM | 70.1 µM | 17.5 µM | 90.9 µM | 27.4 µM | 26.5 µM | 14 µM | 33.2 µM |  | 29.2 µM
